Like-named read-outs stand apart in the source and are kept apart here.
Legend:
[1] = molecular target: rice α-glucosidase (Oryza sativa subsp. japonica, UniProt Q653V7); test: Glycosidase inhibition, rice α-glucosidase; format: biochemical
Source text: (§1) Glycosidase modulation studies need to explore selectivity as well as potency. Our drugs and controls are therefore screened against a panel of glycosidases in methanol (Table 1) to identify the glycosidase-related disease area(s), selectivity profile, and potency of biological action for each drug. The presence of organic boron covalently bonded to the drug structure also grants a reduced toxicity profile. Following the glycosidase inhibition range recommendations, an IC50 value >250 μm denotes weak inhibition, 100–249 μm denotes moderate inhibition, 10–99 μm good inhibition, 0.1–9 μm potent inhibition, and <0.1 μm very potent inhibition. […] Our boronated D-galactose 7 represents a novel lead in glycosidase inhibition.
(§2) The glycosidases screened are the following: rice α-glucosidase, yeast α-glucosidase, Bacillus α-glucosidase, rat intestinal maltase α-glucosidase, almond β-glucosidase, bovine liver β-glucosidase, coffee beans α-galactosidase, bovine liver β-galactosidase, Jack bean α-mannosidase, snail β-mannosidase, Penicillium decumbens α-L-rhamnosidase, bovine kidney α-L-fucosidase, Eschierichia coli β-glucuronidase, bovine liver β-glucuronidase, porcine kidney trehalase, Aspergillus niger amyloglucosidase, and bovine kidney N-acetyl-β-glucosaminidase. The disease areas for each glycosidase are summarized in [1].
(§3) Brush border membranes were prepared from the rat small intestine according to the method of Kessler et al. and were assayed at pH 6.8 for rat intestinal maltase using maltose. For rat intestinal maltase, porcine kidney trehalase, and A. niger amyloglucosidase activities, the reaction mixture contained 25 mM maltose and the appropriate amount of enzyme, and the incubations were performed for 10–30 min at 37 °C. The reaction was stopped by heating at 100 °C for 3 min. After centrifugation (600 g; 10 min), the resulting reaction mixture was added to the Glucose CII-test Wako (Wako Pure Chemical Ind., Osaka, Japan). The absorbance at 505 nm was measured to determine the amount of the released D-glucose. Other glycosidase activities were determined using an appropriate para-nitrophenyl glycoside as substrate at the optimum pH of each enzyme. The reaction mixture contained 2 mM of the substrate and the appropriate amount of enzyme. The reaction was stopped by the addition of 400 mM Na2CO3. The released para-nitrophenol was measured spectrometrically at 400 nm. All reactions run in methanol.

[2] = system: yeast α-glucosidase; test: Glycosidase inhibition, yeast α-glucosidase; format: biochemical; conditions: for inhibition %: in methanol
Source text: as §1, §2
(§4) The enzymes α-glucosidase (from yeast), β-glucosidases (from almond and bovine liver), α-galactosidase (from coffee beans), β-galactosidase (from bovine liver), α-mannosidase (from Jack bean), β-mannosidase (from snail), α-L-rhamnosidase (from Penicillium decumbens), α-L-fucosidase (from bovine kidney), trehalase (from porcine kidney), β-glucuronidases (from E. coli and bovine liver), amyloglucosidase (from A. niger), para-nitrophenyl glycosides, and various disaccharides were purchased from Sigma-Aldrich Co.
as §3

[3] = system: rat intestinal maltase α-glucosidase; test: Glycosidase inhibition, rat intestinal maltase; format: biochemical; conditions: for inhibition %: in methanol
Source text: as §1, §2, §3

[4] = molecular target: T1, coffee beans α-galactosidase (Coffea arabica, UniProt Q42656); test: Glycosidase inhibition, coffee beans α-galactosidase; format: biochemical
T1 construct: purchased Sigma-Aldrich Co
T1 sequence (Q42656 16-378): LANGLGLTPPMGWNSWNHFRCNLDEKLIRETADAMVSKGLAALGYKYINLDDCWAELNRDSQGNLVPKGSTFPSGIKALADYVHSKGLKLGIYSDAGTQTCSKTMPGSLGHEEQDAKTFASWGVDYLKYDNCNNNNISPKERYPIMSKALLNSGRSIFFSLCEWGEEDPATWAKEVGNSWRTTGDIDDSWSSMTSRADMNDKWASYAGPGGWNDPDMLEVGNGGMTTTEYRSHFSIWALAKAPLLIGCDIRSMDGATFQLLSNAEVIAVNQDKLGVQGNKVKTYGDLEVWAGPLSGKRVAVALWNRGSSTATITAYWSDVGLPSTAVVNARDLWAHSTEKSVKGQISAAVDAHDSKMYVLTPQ
Source text: as §1, §2, §4, §3

[5] = molecular target: T2, E. coli β-glucuronidase (Escherichia coli, UniProt P05804); test: Glycosidase inhibition, E. coli β-glucuronidase; format: biochemical
T2 construct: purchased Sigma-Aldrich Co
T2 sequence (P05804 whole entry): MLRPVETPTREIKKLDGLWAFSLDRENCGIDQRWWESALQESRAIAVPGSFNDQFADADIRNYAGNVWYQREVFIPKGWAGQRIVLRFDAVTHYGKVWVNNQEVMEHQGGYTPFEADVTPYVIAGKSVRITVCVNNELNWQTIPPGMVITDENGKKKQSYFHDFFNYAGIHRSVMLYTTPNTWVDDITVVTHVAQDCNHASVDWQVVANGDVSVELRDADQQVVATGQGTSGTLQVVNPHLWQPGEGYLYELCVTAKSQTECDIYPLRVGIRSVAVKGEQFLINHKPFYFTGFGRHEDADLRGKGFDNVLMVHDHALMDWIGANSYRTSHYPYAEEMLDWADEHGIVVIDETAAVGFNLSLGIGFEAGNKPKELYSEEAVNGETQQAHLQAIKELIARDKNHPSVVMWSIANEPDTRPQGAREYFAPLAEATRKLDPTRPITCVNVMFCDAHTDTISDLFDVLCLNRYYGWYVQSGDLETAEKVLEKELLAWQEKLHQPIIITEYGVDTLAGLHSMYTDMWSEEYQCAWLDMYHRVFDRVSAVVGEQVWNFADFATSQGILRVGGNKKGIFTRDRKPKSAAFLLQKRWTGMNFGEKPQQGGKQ
Source text: as §1, §2, §4, §3

[6] = molecular target: T3, porcine kidney trehalase (Sus scrofa, UniProt I3LIR5); test: Glycosidase inhibition, porcine kidney trehalase; format: biochemical
T3 construct: purchased Sigma-Aldrich Co; host or cells: porcine kidney
T3 sequence (I3LIR5 24-583): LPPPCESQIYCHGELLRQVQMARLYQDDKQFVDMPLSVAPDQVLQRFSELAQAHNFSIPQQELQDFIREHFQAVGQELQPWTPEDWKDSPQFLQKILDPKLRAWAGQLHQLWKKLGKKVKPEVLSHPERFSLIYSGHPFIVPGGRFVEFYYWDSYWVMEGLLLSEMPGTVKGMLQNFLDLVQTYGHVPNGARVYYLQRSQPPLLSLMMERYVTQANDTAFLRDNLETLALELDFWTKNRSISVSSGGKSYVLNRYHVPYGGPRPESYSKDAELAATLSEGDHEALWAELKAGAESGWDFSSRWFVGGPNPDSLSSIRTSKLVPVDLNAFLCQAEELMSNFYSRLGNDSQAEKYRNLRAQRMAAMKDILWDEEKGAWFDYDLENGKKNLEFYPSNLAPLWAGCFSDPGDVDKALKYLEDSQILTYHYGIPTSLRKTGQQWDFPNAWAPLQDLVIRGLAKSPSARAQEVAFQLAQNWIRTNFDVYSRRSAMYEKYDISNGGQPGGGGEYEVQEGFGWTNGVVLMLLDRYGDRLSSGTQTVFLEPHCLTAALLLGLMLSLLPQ
Source text: as §1, §2, §4, §3

[7] = system: SJ-G2 (glioblastoma); test: Cancer screening (MTT growth inhibition), SJ-G2; format: cell-based; conditions: 72 h; for Percentage (%) cell growth inhibition: 25 µM of drug; for Percentage (%) cell growth inhibition / inhibition at 25 µM: n = 3, mean ± SEM; for inhibition at 25 µM: SJ-G2, 25 µM of drug, read-out: Percentage (%) cell growth inhibition
Description: All test agents were prepared as stock solutions (20 mM) in dimethyl sulfoxide (DMSO) and stored at −20 °C. Cell lines used in the study included: HT29 (colorectal carcinoma), U87 and SJ-G2 (glioblastoma), MCF-7 (breast carcinoma), A2780 (ovarian carcinoma), H460 (lung carcinoma), A431 (skin carcinoma), Du145 (prostate carcinoma), BE2-C (neuroblastoma), MiaPaCa-2 (pancreatic carcinoma), SMA560 (spontaneous murine astrocytoma), and ADDP (Cis Res Ovarian), together with one non-tumor-derived normal breast cell line (MCF10A). All cell lines were incubated in a humidified atmosphere with 5 % CO2 at 37 °C. The cancer cell lines were maintained in Dulbecco’s modified Eagle’s medium (DMEM; Sigma, Australia) supplemented with fetal bovine serum (10%), sodium pyruvate (10 mM), penicillin (100 IUmL^−1), streptomycin (100 µg mL^−1), and L-glutamine (2 mM).
Growth inhibition was determined by plating cells in duplicate in medium (100 µL) at a density of 2500–4000 cells per well in 96-well plates. On day 0 (24 h after plating), when the cells are in logarithmic growth, medium (100 µL) with or without the test agent was added to each well. After 72 h of drug exposure, growth inhibitory effects were evaluated using the (3-(4,5-dimethyltiazol-2-yl)-2,5-diphenyltetrazolium bromide) (MTT) assay and absorbance read at 540 nm. The percentage growth inhibition was calculated at a fixed concentration of 25 µM, based on the difference between the optical density values on day 0 and those at the end of drug exposure. Each data point is the mean ± the standard error of the mean (SEM) calculated from three replicates, which were performed on separate occasions and in separate cell line passages.

[8] = at 100 μM, in methanol, read-out: inhibition %
[9] = at 100 μM, read-out: NI: No inhibition
[10] = at 1000 μM, in methanol, read-out: inhibition %
[11] = at 1000 μM, read-out: NI: No inhibition

Sequence of rice α-glucosidase (Q653V7 34-885): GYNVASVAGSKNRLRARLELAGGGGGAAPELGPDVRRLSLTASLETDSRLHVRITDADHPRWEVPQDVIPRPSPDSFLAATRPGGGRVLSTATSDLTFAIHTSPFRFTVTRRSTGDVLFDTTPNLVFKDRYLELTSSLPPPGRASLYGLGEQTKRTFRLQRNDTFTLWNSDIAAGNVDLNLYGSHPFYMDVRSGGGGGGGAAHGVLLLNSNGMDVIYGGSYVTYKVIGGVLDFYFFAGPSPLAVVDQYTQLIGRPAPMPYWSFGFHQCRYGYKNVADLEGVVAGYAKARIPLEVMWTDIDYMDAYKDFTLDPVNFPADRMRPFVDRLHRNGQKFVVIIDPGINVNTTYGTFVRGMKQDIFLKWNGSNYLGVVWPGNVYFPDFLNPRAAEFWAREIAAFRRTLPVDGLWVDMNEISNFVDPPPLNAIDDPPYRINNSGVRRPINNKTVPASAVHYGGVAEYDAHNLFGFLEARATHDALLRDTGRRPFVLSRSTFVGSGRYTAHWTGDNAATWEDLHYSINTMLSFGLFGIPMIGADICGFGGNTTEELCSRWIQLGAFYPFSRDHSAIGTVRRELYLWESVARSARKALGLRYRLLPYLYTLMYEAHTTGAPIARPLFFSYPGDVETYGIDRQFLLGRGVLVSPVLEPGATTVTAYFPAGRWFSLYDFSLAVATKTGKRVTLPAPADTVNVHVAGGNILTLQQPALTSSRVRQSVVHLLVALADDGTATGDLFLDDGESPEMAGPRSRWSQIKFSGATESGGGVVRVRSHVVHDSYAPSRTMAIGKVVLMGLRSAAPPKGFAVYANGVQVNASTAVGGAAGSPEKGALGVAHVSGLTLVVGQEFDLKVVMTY

Compound	NI: No inhibition ([2]; at 100 μM)	inhibition % ([2]; at 100 μM) [%]	NI: No inhibition ([3]; at 100 μM)	inhibition % ([3]; at 100 μM) [%]	Percentage (%) cell growth inhibition [7] [%]	inhibition at 100 µM [1, 8] [%]	inhibition at 100 µM [1, 9] [%]	inhibition at 100 µM [4, 8] [%]	inhibition at 100 µM [4, 9] [%]	inhibition at 100 µM [5, 8] [%]	inhibition at 100 µM [5, 9] [%]	inhibition at 100 µM [6, 8] [%]	inhibition at 100 µM [6, 9] [%]	inhibition at 25 µM [7] [%]	NI: No inhibition ([2]; at 1000 μM)	inhibition % ([2]; at 1000 μM) [%]	NI: No inhibition ([3]; at 1000 μM)	inhibition % ([3]; at 1000 μM) [%]	further results
N[C@@H](Cc1ccc(B(O)O)cc1)C(=O)O [^10B-BPA]	NI (No inhibition (less than 50% inhibition at 100 μM))	0	NI (No inhibition (less than 50% inhibition at 100 μM))	0	5 ± 10	–	–	–	–	–	–	–	–	–	–	–	–	–	NI: No inhibition ([1]; at 100 μM): NI (No inhibition (less than 50% inhibition at 100 μM)); inhibition % ([1]; at 100 μM, in methanol): 0%; inhibition % ([4]; at 100 μM, in methanol): 1.2%; inhibition % ([5]; at 100 μM, in methanol): 2.4%; NI: No inhibition ([6]; at 100 μM): NI (No inhibition (less than 50% inhibition at 100 μM)); inhibition % ([6]; at 100 μM, in methanol): 0%
CC1(C)OCC(C2OC3OC(C)(C)OC3C2[B-]23OCC[NH+]2CCO3)O1 [Compound 6, 3-Deoxy-3-Boronodiethanolamine-1,2:5,6-Di-O-isopropylidene-α-D-galactofuranose]	NI (No inhibition (less than 50% inhibition at 100 μM))	0	NI (No inhibition (less than 50% inhibition at 100 μM))	3.1	–	5.9	< 50	0.5	< 50	3.5	< 50	0	< 50	< 0	–	–	–	–	–
OCC1OC(O)C(O)C(B(O)O)C1O [Compound 7, 3-Boronic-3-Deoxy-D-galactose]	–	–	–	–	–	–	–	–	–	–	–	–	–	7 ± 4	NI (No inhibition (less than 50% inhibition at 1000 μM))	12.1	NI (No inhibition (less than 50% inhibition at 1000 μM))	18.3	inhibition at 1000 µM [1, 10]: 33.8%; inhibition at 1000 µM [1, 11]: < 50%; inhibition at 1000 µM [4, 10]: 0%; inhibition at 1000 µM [4, 11]: < 50%; inhibition at 1000 µM [5, 10]: 3.7%; inhibition at 1000 µM [5, 11]: < 50%; inhibition at 1000 µM [6, 10]: 0.5%; inhibition at 1000 µM [6, 11]: < 50%; GI50 ([7]; SJ-G2, dose response, read-out: GI50 = Concentration that inhibits cell growth by 50%): > 50 µM
N[C@@H](Cc1ccc(B(O)O)cc1)C(=O)O [BPA, 4-borono-L-phenylalanine]	NI (No inhibition (less than 50% inhibition at 100 μM))	0	NI (No inhibition (less than 50% inhibition at 100 μM))	0	–	0	< 50	4.3	< 50	0.5	< 50	0	< 50	5 ± 8	–	–	–	–	–
Borocaptate sodium [BSH]	–	–	–	–	3 ± 8	–	–	–	–	–	–	–	–	–	NI (No inhibition (less than 50% inhibition at 1000 μM))	6.9	NI (No inhibition (less than 50% inhibition at 1000 μM))	0	NI: No inhibition ([1]; at 1000 μM): NI (No inhibition (less than 50% inhibition at 1000 μM)); inhibition % ([1]; at 1000 μM, in methanol): 0%; inhibition % ([4]; at 1000 μM, in methanol): 12.3%; inhibition % ([5]; at 1000 μM, in methanol): 6%; NI: No inhibition ([6]; at 1000 μM): NI (No inhibition (less than 50% inhibition at 1000 μM)); inhibition % ([6]; at 1000 μM, in methanol): 4.2%

From paper PMC10254170, “Diastereoselective Synthesis of the Borylated D-Galactose Monosaccharide 3-Boronic-3-Deoxy-D-Galactose and Biological Evaluation in Glycosidase Inhibition and in Cancer for Boron Neutron Capture Therapy (BNCT)” (Molecules, 2023)
